Assay results as given in the supplement of paper PMC10627819.

Columns and labels:
S. pneumoniae D39V [1] = experiment: Bliss interaction score (quartile over a dose matrix) (fitness difference); higher = more antagonism (negative = synergy)
Outline: (§1)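 Fitness was derived from optical density at entry into stationary phase, divided by the robust mean of the no-drug wells on the same plate. That reading was taken as OD595, and the ratio was capped at 1. Single-drug fitness was inferred from the combination data. The Bliss score, observed fitness minus the expected product of single-drug fitness, was summarised as quartiles over technical, biological and donor/recipient replicates.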

B. subtilis 168 [2] = experiment: as above
Outline: as §1

S. aureus DSM 20231 [3] = experiment: as above
Outline: as §1

S. aureus Newman [4] = experiment: as above
Outline: as §1

S. pneumoniae D39V [5] = experiment: fitness (endpoint OD595 vs no drug) (fraction); higher = more growth
Outline: (§2)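 Volumes were 30 µl per well, or 55 µl for S. pneumoniae, in 384-well plates inoculated at OD595 0.01. Media were TSB, LB Lennox or CY at 37 °C, and OD595 was read every 30 min for 14 h with first-reading background subtraction. Fitness is the ratio of optical density at stationary-phase entry to the robust mean of no-drug controls. That ratio is capped at 1.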

B. subtilis 168 [6] = experiment: as above
Outline: as §2

S. aureus DSM 20231 [7] = experiment: as above
Outline: as §2

S. aureus Newman [8] = experiment: as above
Outline: as §2
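For Bliss interaction score (quartile over a dose matrix) in this document: first quartile when negative (synergy) and third quartile when positive (antagonism).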

O=C(O[C@@H]1Cc2c(O)cc(O)cc2O[C@@H]1c1cc(O)c(O)c(O)c1)c1cc(O)c(O)c(O)c1 [EGCG] + Cc1cc(NS(=O)(=O)c2ccc(N)cc2)no1 [Sulfamethoxazol]
Conditions | Bliss interaction score
B. subtilis 168 [2] | -0.0762
S. aureus DSM 20231 [3] | 0.071
S. aureus Newman [4] | 0.0456
S. pneumoniae D39V [1] | 0.0423

fitness
Conditions | partner 1 µg/mL | partner 2 µg/mL | partner 4 µg/mL
B. subtilis 168 [6], first compound 6.25 µg/mL | 0.881 | 0.815 | 0.901
B. subtilis 168 [6], first compound 25 µg/mL | – | 0.299 | 0.341
S. aureus DSM 20231 [7], first compound 12.5 µg/mL | 0.841 | 0.863 | 0.854
S. aureus DSM 20231 [7], first compound 25 µg/mL | 0.769 | 0.842 | 0.833
S. aureus DSM 20231 [7], first compound 50 µg/mL | 0.75 | 0.733 | 0.795
S. aureus Newman [8], first compound 12.5 µg/mL | 0.806 | 0.806 | 0.786
S. aureus Newman [8], first compound 25 µg/mL | 0.764 | 0.801 | 0.779
S. aureus Newman [8], first compound 50 µg/mL | 0.685 | 0.783 | 0.772
S. pneumoniae D39V [5], first compound 12.5 µg/mL | 0.934 | 0.905 | 0.965
S. pneumoniae D39V [5], first compound 25 µg/mL | 0.941 | 0.966 | 0.905
S. pneumoniae D39V [5], first compound 50 µg/mL | 0.951 | ≥ 1 | 0.725

fitness, one replicate
Conditions | first compound 6.25 µg/mL | first compound 12.5 µg/mL | first compound 25 µg/mL | first compound 50 µg/mL
B. subtilis 168 [6], partner 0.5 µg/mL | 0.831 | 0.551 | 0.271 | –
S. aureus Newman [8], partner 8 µg/mL | – | 0.712 | 0.703 | 0.675

COc1c(N2C[C@@H]3CCCN[C@@H]3C2)c(F)cc2c(=O)c(C(=O)O)cn(C3CC3)c12 [Moxifloxacin] + CC1=C\[C@@H](O)CC(=O)Cc2nc(co2)C(=O)N2CCC=C2C(=O)O[C@H](C(C)C)[C@H](C)/C=C/C(=O)NC\C=C\1 [Virginiamycin M1]
Conditions | Bliss interaction score
B. subtilis 168 [2] | -0.0191
S. aureus DSM 20231 [3] | -0.0567
S. aureus Newman [4] | -0.0536
S. pneumoniae D39V [1] | 0.065

one replicate
Conditions | fitness
S. aureus DSM 20231 [7], first compound 0.0075 µg/mL, partner 0.5 µg/mL | 0.785
S. aureus DSM 20231 [7], first compound 0.0075 µg/mL, partner 1 µg/mL | 0.81
S. aureus DSM 20231 [7], first compound 0.015 µg/mL, partner 0.5 µg/mL | 0.787
S. aureus DSM 20231 [7], first compound 0.015 µg/mL, partner 1 µg/mL | 0.793
S. aureus DSM 20231 [7], first compound 0.03 µg/mL, partner 0.5 µg/mL | 0.693
S. aureus DSM 20231 [7], first compound 0.03 µg/mL, partner 1 µg/mL | 0.734
S. aureus DSM 20231 [7], first compound 0.06 µg/mL, partner 0.0625 µg/mL | 0.686
S. aureus DSM 20231 [7], first compound 0.06 µg/mL, partner 0.125 µg/mL | 0.695
S. aureus DSM 20231 [7], first compound 0.06 µg/mL, partner 0.25 µg/mL | 0.69
S. aureus DSM 20231 [7], first compound 0.12 µg/mL, partner 0.0625 µg/mL | 0.462
S. aureus DSM 20231 [7], first compound 0.12 µg/mL, partner 0.125 µg/mL | 0.471
S. aureus DSM 20231 [7], first compound 0.12 µg/mL, partner 0.25 µg/mL | 0.46
S. aureus Newman [8], first compound 0.0075 µg/mL, partner 0.5 µg/mL | 0.659
S. aureus Newman [8], first compound 0.0075 µg/mL, partner 1 µg/mL | 0.758
S. aureus Newman [8], first compound 0.0075 µg/mL, partner 2 µg/mL | 0.665
S. aureus Newman [8], first compound 0.015 µg/mL, partner 0.5 µg/mL | 0.654
S. aureus Newman [8], first compound 0.015 µg/mL, partner 1 µg/mL | 0.643
S. aureus Newman [8], first compound 0.015 µg/mL, partner 2 µg/mL | 0.579
S. aureus Newman [8], first compound 0.03 µg/mL, partner 0.5 µg/mL | 0.465
S. aureus Newman [8], first compound 0.03 µg/mL, partner 1 µg/mL | 0.414
S. aureus Newman [8], first compound 0.03 µg/mL, partner 2 µg/mL | 0.323
S. pneumoniae D39V [5], first compound 0.0037 µg/mL, partner 0.15 µg/mL | 0.808
S. pneumoniae D39V [5], first compound 0.0037 µg/mL, partner 0.3 µg/mL | 0.758
S. pneumoniae D39V [5], first compound 0.0037 µg/mL, partner 0.5 µg/mL | 0.97
S. pneumoniae D39V [5], first compound 0.0037 µg/mL, partner 1 µg/mL | 0.95
S. pneumoniae D39V [5], first compound 0.0075 µg/mL, partner 0.15 µg/mL | 0.911
S. pneumoniae D39V [5], first compound 0.0075 µg/mL, partner 0.3 µg/mL | 0.877
S. pneumoniae D39V [5], first compound 0.0075 µg/mL, partner 0.5 µg/mL | 0.965
S. pneumoniae D39V [5], first compound 0.0075 µg/mL, partner 1 µg/mL | 0.934
S. pneumoniae D39V [5], first compound 0.015 µg/mL, partner 0.15 µg/mL | 0.832
S. pneumoniae D39V [5], first compound 0.015 µg/mL, partner 0.3 µg/mL | 0.843
S. pneumoniae D39V [5], first compound 0.015 µg/mL, partner 0.5 µg/mL | 0.933
S. pneumoniae D39V [5], first compound 0.015 µg/mL, partner 1 µg/mL | 0.873

Conditions | fitness
B. subtilis 168 [6], first compound 0.0312 µg/mL, partner 0.0625 µg/mL | 0.0441
B. subtilis 168 [6], first compound 0.0312 µg/mL, partner 0.125 µg/mL | 0.0556
B. subtilis 168 [6], first compound 0.0312 µg/mL, partner 0.25 µg/mL | 0.0499
B. subtilis 168 [6], first compound 0.0625 µg/mL, partner 0.0625 µg/mL | 0.0365
B. subtilis 168 [6], first compound 0.0625 µg/mL, partner 0.125 µg/mL | 0.0573
B. subtilis 168 [6], first compound 0.0625 µg/mL, partner 0.25 µg/mL | 0.0434
B. subtilis 168 [6], first compound 0.125 µg/mL, partner 0.0625 µg/mL | 0.044
B. subtilis 168 [6], first compound 0.125 µg/mL, partner 0.125 µg/mL | 0.0517
B. subtilis 168 [6], first compound 0.125 µg/mL, partner 0.25 µg/mL | 0.0468
B. subtilis 168 [6], first compound 2 µg/mL, partner 0.0625 µg/mL | 0.0224
B. subtilis 168 [6], first compound 2 µg/mL, partner 0.125 µg/mL | 0.0234
B. subtilis 168 [6], first compound 2 µg/mL, partner 0.25 µg/mL | 0.0324
B. subtilis 168 [6], first compound 4 µg/mL, partner 0.0625 µg/mL | 0.0209
B. subtilis 168 [6], first compound 4 µg/mL, partner 0.125 µg/mL | 0.0242
B. subtilis 168 [6], first compound 4 µg/mL, partner 0.25 µg/mL | 0.0192
B. subtilis 168 [6], first compound 8 µg/mL, partner 0.0625 µg/mL | 0.0121
B. subtilis 168 [6], first compound 8 µg/mL, partner 0.125 µg/mL | 0.0128
B. subtilis 168 [6], first compound 8 µg/mL, partner 0.25 µg/mL | 0.0206
S. aureus DSM 20231 [7], first compound 0.0075 µg/mL, partner 0.0625 µg/mL | 0.812
S. aureus DSM 20231 [7], first compound 0.0075 µg/mL, partner 0.125 µg/mL | 0.901
S. aureus DSM 20231 [7], first compound 0.0075 µg/mL, partner 0.25 µg/mL | 0.81
S. aureus DSM 20231 [7], first compound 0.015 µg/mL, partner 0.0625 µg/mL | 0.702
S. aureus DSM 20231 [7], first compound 0.015 µg/mL, partner 0.125 µg/mL | 0.72
S. aureus DSM 20231 [7], first compound 0.015 µg/mL, partner 0.25 µg/mL | 0.776
S. aureus DSM 20231 [7], first compound 0.03 µg/mL, partner 0.0625 µg/mL | 0.609
S. aureus DSM 20231 [7], first compound 0.03 µg/mL, partner 0.125 µg/mL | 0.67
S. aureus DSM 20231 [7], first compound 0.03 µg/mL, partner 0.25 µg/mL | 0.662
S. aureus Newman [8], first compound 0.0075 µg/mL, partner 0.0625 µg/mL | 0.764
S. aureus Newman [8], first compound 0.0075 µg/mL, partner 0.125 µg/mL | 0.762
S. aureus Newman [8], first compound 0.0075 µg/mL, partner 0.25 µg/mL | 0.795
S. aureus Newman [8], first compound 0.015 µg/mL, partner 0.0625 µg/mL | 0.545
S. aureus Newman [8], first compound 0.015 µg/mL, partner 0.125 µg/mL | 0.556
S. aureus Newman [8], first compound 0.015 µg/mL, partner 0.25 µg/mL | 0.517
S. aureus Newman [8], first compound 0.03 µg/mL, partner 0.0625 µg/mL | 0.0697
S. aureus Newman [8], first compound 0.03 µg/mL, partner 0.125 µg/mL | 0.0796
S. aureus Newman [8], first compound 0.03 µg/mL, partner 0.25 µg/mL | 0.0787
S. pneumoniae D39V [5], first compound 0.0037 µg/mL, partner 2 µg/mL | 0.802
S. pneumoniae D39V [5], first compound 0.005 µg/mL, partner 0.5 µg/mL | 0.999
S. pneumoniae D39V [5], first compound 0.005 µg/mL, partner 1 µg/mL | ≥ 1
S. pneumoniae D39V [5], first compound 0.005 µg/mL, partner 2 µg/mL | 0.99
S. pneumoniae D39V [5], first compound 0.0075 µg/mL, partner 2 µg/mL | 0.869
S. pneumoniae D39V [5], first compound 0.01 µg/mL, partner 0.5 µg/mL | ≥ 1
S. pneumoniae D39V [5], first compound 0.01 µg/mL, partner 1 µg/mL | 0.992
S. pneumoniae D39V [5], first compound 0.01 µg/mL, partner 2 µg/mL | 0.979
S. pneumoniae D39V [5], first compound 0.015 µg/mL, partner 2 µg/mL | 0.811
S. pneumoniae D39V [5], first compound 0.02 µg/mL, partner 0.5 µg/mL | 0.981
S. pneumoniae D39V [5], first compound 0.02 µg/mL, partner 1 µg/mL | 0.995
S. pneumoniae D39V [5], first compound 0.02 µg/mL, partner 2 µg/mL | 0.963
